Experimental data reported in paper PMC6362118, “Pharmacophore-guided discovery of CDC25 inhibitors causing cell cycle arrest and tumor regression” (Scientific Reports, 2019).
Where two headings read alike, the source gives them in different places.

Experiments:
[1] = test system: HCT116 tumors; test: HCT116 tumor xenograft in zebrafish embryos; assay type: in vivo; settings: for primary tumor size at day 3 relative to day 0: 10 µM in water, three days (day 2 to day 5); for metastasis (tumor cells in caudal hematopoietic plexus): 10 µM, 3 dpi
Method: Implantation of HCT116 cells into zebrafish embryos were carried out essentially as previously described. Briefly, HCT116 cells were cultured in McCoy’s medium supplemented with 10% FCS and penicillin/streptomycin until ~80% confluence, then labeled for 30 min at 37 °C in 6 μg/mL 1,1′-dioctadecyl-3,3,3′,3′-tetramethylindocarbocyanine perchlorate (DiI, Sigma) in PBS followed by washing 3x in PBS. Labeled cells were implanted in the perivitelline space of 48 hours post-fertilization (hpf) wildtype (AB) zebrafish embryos, kept from the 1-cell stage in 1-phenyl-2-thiourea (PTU)-containing E3-water. […] As control, embryos were incubated in PTU-E3 with 0.1% DMSO (vehicle). Tumor-bearing embryos were incubated at 36 °C for three days and the change in tumor volume was evaluated as the size of the tumors at three days post-implantation (3 dpi) relative to the size immediately after implantation (0 dpi). Metastasis was evaluated at 3 dpi as the number of tumor cells present in the caudal hematopoietic plexus, the main metastatic site for tumors implanted in the perivitelline space.

[2] = target: T1, CDC25A (Homo sapiens, UniProt P30304); test: Enzymatic assay (OMFP substrate) on recombinant CDC25A; assay type: biochemical; settings: for remaining activity at 20 µM: compound 20 µM, relative to DMSO control; for IC50: dose-response on recombinant CDC25A
T1 construct: GST (pGEX vector) (N); made in house; host or cells: E. coli BL21
T1 sequence (P30304 1-524): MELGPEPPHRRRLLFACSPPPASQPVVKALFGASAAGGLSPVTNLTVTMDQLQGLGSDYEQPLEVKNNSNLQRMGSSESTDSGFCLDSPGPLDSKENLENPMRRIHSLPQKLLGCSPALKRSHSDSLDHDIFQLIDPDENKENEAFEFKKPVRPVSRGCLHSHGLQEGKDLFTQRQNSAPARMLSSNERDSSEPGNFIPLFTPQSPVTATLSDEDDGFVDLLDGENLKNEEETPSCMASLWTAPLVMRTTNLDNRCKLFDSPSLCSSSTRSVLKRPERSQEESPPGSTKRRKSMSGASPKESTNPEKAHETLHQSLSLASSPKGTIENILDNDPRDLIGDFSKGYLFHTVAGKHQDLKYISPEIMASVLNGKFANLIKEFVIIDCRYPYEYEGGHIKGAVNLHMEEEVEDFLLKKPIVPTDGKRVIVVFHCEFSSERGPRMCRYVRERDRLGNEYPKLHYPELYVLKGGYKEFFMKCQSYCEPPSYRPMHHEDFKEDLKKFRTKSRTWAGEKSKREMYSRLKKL
Method: 57 UPD compounds were dissolved in DMSO at 10 mM stock concentration and stored in
60 Expression and purification of CDC25 phosphatases - CDC25A (kind gift of I.
61 Hoffmann, Heidelberg, Germany), CDC25B and CDC25C (kind gift of B. Gabrielli,
62 Queensland, Australia) in pGEX were expressed in E. coli BL21 cells and purified on 1
63 ml Glutathione Sepharose 4 Fast Flow columns as described 1.
65 Enzymatic assays - CDC25A, CDC25B and CDC25C were appropriately diluted in 10
66 mM Tris-HCl pH 8.0, 50 mM NaCl and assayed in 20 mM Tris-HCl pH 8.0, 75 mM
67 NaCl, 0.5 mM EGTA, 1 mM DTT, 0.1 mg/ml BSA and defined concentrations of
68 compounds. Reactions were started by addition of the substrate OMFP (0.1 mM). Assays
69 were carried out at room temperature in duplicate or triplicate using transparent-bottom,
70 V-shaped 96 well plates and read at defined intervals on a Molecular Devices
71 SpectraMax microplate reader (ex: 490 nm / em: 525 nm). IC50 and kinetic parameters
72 calculated from Lineweaver-Burk double-reciprocal plots of the data were obtained using
73 GraphPad Prism software. […]

[3] = test system: HeLa cells; test: Flow cytometric analysis of cell cycle progression (DNA content) in HeLa cells; assay type: cell-based; settings: for effect on the G2/M transition: double-thymidine synchronized HeLa, 10 μM added 5 h upon release, analysed 12 h post-release; for progression through S-phase: HeLa, 10 µM added at release from double-thymidine block (early S-phase); for effect on cell cycle distribution (DNA content): asynchronous HeLa cells, 10 μM, 15 h
Method: Reactions were started by addition of the substrate OMFP (0.1 mM). Assays 69 were carried out at room temperature in duplicate or triplicate using transparent-bottom, 70 V-shaped 96 well plates and read at defined intervals on a Molecular Devices 71 SpectraMax microplate reader (ex: 490 nm / em: 525 nm). IC50 and kinetic parameters 72 calculated from Lineweaver-Burk double-reciprocal plots of the data were obtained using 73 GraphPad Prism software. 74 75 Cell culture - Wild-type HeLa and Kyoto HeLa cells stably expressing mCherry-H2B 76 were maintained in DMEM+L-Glutamine (Gibco, Life Technologies, USA) 77 supplemented with 5% fetal calf serum (FCS) (Gibco) and penicillin-streptomycin (100 […] A549 and Colo741 were grown and maintained like HeLa 79 cells but with 10% FCS. HCT116 were maintained in McCoy's medium supplemented 80 with 10% FCS and penicillin-streptomycin. U2OS-Tet-OFF cells expressing HA-CDC25 81 were grown and maintained in DMEM+L-Glutamine, 10% Tet-free FCS and penicillin- 82 streptomycin in the presence or the absence of 4 μg/ml tetracycline (Sigma, T7660). 83 84 Cell synchronization - Cell synchronization was performed by double thymidine block- 85 release protocol 2 or nocodazole treatment 3 and verified by flow cytometry. 86 87 Cell viability assays - Compounds viability upon 48h treatment with the compounds was 88 assessed as described 4. Data were plotted with Prism 7® and analyzed by non-linear 89 regression. Comparison of single curve fitting to all data set within an experiment was 90 performed with the extra sum-of-squares F-test to determine P values. 91 92 Western blotting - Cell lysis and immunoblot analysis were performed as previously 93 described 5. […] Cells were washed with PBS, resuspended […] To 100 quantify phosphorylation of CDK1 at Tyr15 and H2AX at S139, cells were harvested and 101 examined as described 6. Samples were measured on an AttuneTM NxT Cytometer 102 (ThermoFisher Scientific, Carlsbad, CA, USA) and data were analyzed with FlowJo® 103 software v10 (FlowJo, LLC, Ashland, OR, USA). 104 105 Real Time qRT-PCR - Organoids were lysed in Tri-Reagent (Sigma) as previously 106 described 7 and total RNA was isolated as described by manufacturer's instructions. For […] 108 High Fidelity cDNA Synthesis kit (Roche). Real-time quantitative PCR reactions were 109 performed in three independent biological replicates, each with technical triplicate, using 110 the Applied Biosystems SYBR Green Kit and monitored by the ABI Prism 7900HT 111 system (Applied Biosystem). The following primers were used: 112 Lgr5: Forward [NT] and Reverse 5'- […] 114 Lysozyme: Forward [NT] and Reverse 5'- 115 [NT]3' 116 Cryptdin: Forward [NT] and Reverse 5'- 117 [NT]-binding protein (TBP): Forward [NT] and 119 Reverse [NT] 120 […] 122 amplification curves and the melting temperature analysis of the final amplification […] 4

[4] = read-out: % remaining activity ± SD (Table S1, first round of selection)

| Compound | primary tumor size at day 3 relative to day 0 [1] | metastasis (tumor cells in caudal hematopoietic plexus) [1] | remaining activity at 20 µM [2, 4] [%] | IC50 [2] [nM] | effect on the G2/M transition [3] | effect on the G1/S transition ([3]; HeLa synchronized at G2/M, 10 μM added in mid-G1, analysed 12 h post-release) | progression through S-phase [3] | effect on cell cycle distribution (DNA content) [3] | remaining activity at 20 µM ([2]; read-out: % remaining activity ± SD (Table S2, second round of selection)) [%] | mechanism of enzyme inhibition ([2]; kinetic analysis, mixed-model inhibition equation) | Ki ([2]; mixed-model inhibition equation) [nM] |
| --- | --- | --- | --- | --- | --- | --- | --- | --- | --- | --- | --- |
| O=C1C=C(c2ccc(O)cc2O)C(=O)c2c(O)cccc21 [UPD-140, 2-(2′,4′-dihydroxyphenyl)-8-hydroxy-1,4-naphthoquinone] | reduced to approximately half the size of the initial volume | reduction in metastasis achieved borderline significance | 0.1 ± 0.1 | 1420 | accretion of the G2/M peak |  |  |  |  |  |  |
| O=C1C(c2ccc(O)cc2O)=CC(=O)c2c(O)cccc21 [UPD-176, 5-hydroxy-2-(2,4-dihydroxyphenyl)naphthalene-1,4-dione] | tendency towards tumor regression, although not significant | did not appear to be significant | 0 |  | accretion of the G2/M peak | effectively blocked cells in G1 | progression through S-phase was effectively held in check | accumulation of cells at G2/M |  |  |  |
| COc1cccc(SC2=CC(=O)c3cccc(O)c3C2=O)c1 [UPD-795, 2-(3-methoxyphenylthio)-8-hydroxynaphthalene-1,4-dione] |  |  |  | 1250 |  |  | progression through S-phase was effectively held in check | increase of the G1 population | 0 | mixed mechanism of enzyme inhibition | 1180 ± 400 |
